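Values below derive from 48-hour exposures of cells grown in 96-well plates, with endpoints linearly interpolated between the two concentrations bracketing the appropriate inhibition level. At the GI50, growth is halved.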 Calls of active or inactive are those of the source. Cut-off read from the data, not from the text of the source: active = GI50 up to about 1.1 µM and inactive = higher.
Key:
Experiment in all cases: inhibition of tumour cell growth, NCI panel, 48 h
MCF7 = tested on: MCF7
LOX IMVI = tested on: LOX IMVI
786-0 = tested on: 786-0
SN12C = tested on: SN12C
SK-MEL-2 = tested on: SK-MEL-2
UACC-257 = tested on: UACC-257
HOP-92 = tested on: HOP-92
DU-145 = tested on: DU-145
TK-10 = tested on: TK-10
NCI-H460 = tested on: NCI-H460
MDA-N = tested on: MDA-N
HCT-116 = tested on: HCT-116
HT-29 = tested on: HT-29
OVCAR-4 = tested on: OVCAR-4
COLO 205 = tested on: COLO 205
K562 = tested on: K562
BT-549 = tested on: BT-549
SNB-75 = tested on: SNB-75
SK-MEL-5 = tested on: SK-MEL-5
A498 = tested on: A498

SMILES	GI50 (MCF7)	GI50 (LOX IMVI)	GI50 (786-0)	GI50 (SN12C)	GI50 (SK-MEL-2)	GI50 (UACC-257)	GI50 (HOP-92)	GI50 (DU-145)	GI50 (TK-10)	GI50 (NCI-H460)	GI50 (MDA-N)	GI50 (HCT-116)	GI50 (HT-29)	GI50 (OVCAR-4)	GI50 (COLO 205)	GI50 (K562)	GI50 (BT-549)	GI50 (SNB-75)	GI50 (SK-MEL-5)	GI50 (A498)
O=C(O)C1CCCCN1C(=O)Cc1c[nH]c2ccccc12 (stereo unspecified)	> 100 µM (inactive)	> 100 µM (inactive)	> 100 µM (inactive)	> 100 µM (inactive)	> 100 µM (inactive)	> 100 µM (inactive)	> 100 µM (inactive)	> 100 µM (inactive)	> 100 µM (inactive)	> 100 µM (inactive)	> 100 µM (inactive)	> 100 µM (inactive)	> 100 µM (inactive)	> 100 µM (inactive)	> 100 µM (inactive)	> 100 µM (inactive)	> 100 µM (inactive)	> 100 µM (inactive)	–	–
CCOC(=O)Cc1nc2c(N)ncnc2n1C1OC(COC(C)=O)C(OC(C)=O)C1OC(C)=O (stereo unspecified)	> 100 µM (inactive)	> 100 µM (inactive)	> 100 µM (inactive)	> 100 µM (inactive)	–	> 100 µM (inactive)	83.9 µM (inactive)	> 100 µM (inactive)	> 100 µM (inactive)	> 100 µM (inactive)	> 100 µM (inactive)	> 100 µM (inactive)	> 100 µM (inactive)	–	> 100 µM (inactive)	> 100 µM (inactive)	> 100 µM (inactive)	–	> 100 µM (inactive)	> 100 µM (inactive)
Cc1nn(C(=O)c2ccncc2)c2c1C(c1ccccc1[N+](=O)[O-])SC(=N)N2 (stereo unspecified)	> 10 µM (inactive)	> 10 µM (inactive)	> 10 µM (inactive)	> 10 µM (inactive)	> 10 µM (inactive)	> 10 µM (inactive)	> 10 µM (inactive)	> 10 µM (inactive)	> 10 µM (inactive)	> 10 µM (inactive)	> 10 µM (inactive)	> 10 µM (inactive)	> 10 µM (inactive)	> 10 µM (inactive)	> 10 µM (inactive)	> 10 µM (inactive)	> 10 µM (inactive)	> 10 µM (inactive)	> 10 µM (inactive)	–
CN1C(=O)c2cccc3cc([N+](=O)[O-])cc(c23)C1=O	4.05 µM (inactive)	> 10 µM (inactive)	> 10 µM (inactive)	> 10 µM (inactive)	–	> 10 µM (inactive)	> 10 µM (inactive)	> 10 µM (inactive)	> 10 µM (inactive)	–	> 10 µM (inactive)	8.61 µM (inactive)	> 10 µM (inactive)	> 10 µM (inactive)	> 10 µM (inactive)	> 10 µM (inactive)	> 10 µM (inactive)	> 10 µM (inactive)	> 10 µM (inactive)	–
CCCCCC/C=C\CCCCCCCCCc1cccc(OC)c1O	75.5 µM (inactive)	> 100 µM (inactive)	> 100 µM (inactive)	> 100 µM (inactive)	> 100 µM (inactive)	> 100 µM (inactive)	–	> 100 µM (inactive)	> 100 µM (inactive)	–	85.9 µM (inactive)	44.2 µM (inactive)	> 100 µM (inactive)	–	> 100 µM (inactive)	> 100 µM (inactive)	> 100 µM (inactive)	> 100 µM (inactive)	> 100 µM (inactive)	41.2 µM (inactive)
CCCCCCOc1ccc(NC2=C(Cl)C(=O)c3ncccc3C2=O)cc1	1.11 µM (active)	1.61 µM (inactive)	2.22 µM (inactive)	1.67 µM (inactive)	–	1.9 µM (inactive)	> 10 µM (inactive)	1.5 µM (inactive)	4.31 µM (inactive)	1.55 µM (inactive)	1.52 µM (inactive)	1.16 µM (inactive)	3.87 µM (inactive)	–	–	2.59 µM (inactive)	1.76 µM (inactive)	1.99 µM (inactive)	1.54 µM (inactive)	> 10 µM (inactive)
Nc1ccc(Cc2ccc(/N=C\c3ccc(OCc4cccc(COc5ccc(/C=N\c6ccc(Cc7ccc(N)cc7)cc6)cc5)n4)cc3)cc2)cc1	> 100 µM (inactive)	> 100 µM (inactive)	65.9 µM (inactive)	> 100 µM (inactive)	39.2 µM (inactive)	> 100 µM (inactive)	–	> 100 µM (inactive)	81.3 µM (inactive)	> 100 µM (inactive)	> 100 µM (inactive)	> 100 µM (inactive)	> 100 µM (inactive)	85.1 µM (inactive)	> 100 µM (inactive)	> 100 µM (inactive)	> 100 µM (inactive)	13.2 µM (inactive)	> 100 µM (inactive)	61.5 µM (inactive)
Cc1ncc([N+](=O)[O-])n1CCNC(=O)CCCn1ccnc1[N+](=O)[O-]	> 100 µM (inactive)	> 100 µM (inactive)	> 100 µM (inactive)	> 100 µM (inactive)	> 100 µM (inactive)	> 100 µM (inactive)	–	> 100 µM (inactive)	> 100 µM (inactive)	> 100 µM (inactive)	> 100 µM (inactive)	> 100 µM (inactive)	> 100 µM (inactive)	> 100 µM (inactive)	> 100 µM (inactive)	> 100 µM (inactive)	> 100 µM (inactive)	> 100 µM (inactive)	> 100 µM (inactive)	> 100 µM (inactive)
CCOC(=O)C1CCCN1C(=O)c1ccccc1Cl (stereo unspecified)	> 100 µM (inactive)	> 100 µM (inactive)	> 100 µM (inactive)	> 100 µM (inactive)	–	> 100 µM (inactive)	75.9 µM (inactive)	> 100 µM (inactive)	> 100 µM (inactive)	> 100 µM (inactive)	> 100 µM (inactive)	> 100 µM (inactive)	> 100 µM (inactive)	–	–	> 100 µM (inactive)	> 100 µM (inactive)	> 100 µM (inactive)	> 100 µM (inactive)	> 100 µM (inactive)
C[C@@H](c1ccccc1)N1CN(C(=O)OCc2ccccc2)C(C)(C)CC1=O	> 100 µM (inactive)	> 100 µM (inactive)	> 100 µM (inactive)	> 100 µM (inactive)	> 100 µM (inactive)	78.2 µM (inactive)	> 100 µM (inactive)	> 100 µM (inactive)	> 100 µM (inactive)	> 100 µM (inactive)	> 100 µM (inactive)	> 100 µM (inactive)	> 100 µM (inactive)	> 100 µM (inactive)	> 100 µM (inactive)	> 100 µM (inactive)	> 100 µM (inactive)	> 100 µM (inactive)	41.7 µM (inactive)	–
COc1cc(/C=C/C2=NN(c3cccc(S(=O)(=O)O)c3)C3(C2)C(Cl)C(=O)N3c2nc3ccccc3s2)ccc1O (stereo unspecified)	33.1 µM (inactive)	11.4 µM (inactive)	17.4 µM (inactive)	21.9 µM (inactive)	39.7 µM (inactive)	19.9 µM (inactive)	13.2 µM (inactive)	–	14.8 µM (inactive)	32.7 µM (inactive)	25.2 µM (inactive)	19.5 µM (inactive)	20.7 µM (inactive)	16.1 µM (inactive)	18.5 µM (inactive)	20.8 µM (inactive)	14.7 µM (inactive)	21.7 µM (inactive)	23.6 µM (inactive)	55.6 µM (inactive)
CC(=O)N/N=C1/CC[C@@]2(C)C(=CC[C@H]3C4CCC(C(C)CCCC(C)C)[C@@]4(C)CCC32)C1(C)C (stereo partly specified)	53.7 µM (inactive)	3.94 µM (inactive)	43.7 µM (inactive)	51.4 µM (inactive)	58.3 µM (inactive)	36.6 µM (inactive)	> 100 µM (inactive)	> 100 µM (inactive)	> 100 µM (inactive)	32.1 µM (inactive)	> 10 µM (inactive)	48.8 µM (inactive)	31.5 µM (inactive)	50.5 µM (inactive)	32.9 µM (inactive)	15.9 µM (inactive)	> 100 µM (inactive)	> 100 µM (inactive)	37.4 µM (inactive)	–
O=C1c2cc(Cl)ccc2-n2cnnc2C2CSCN12 (stereo unspecified)	> 100 µM (inactive)	> 100 µM (inactive)	> 100 µM (inactive)	> 100 µM (inactive)	> 100 µM (inactive)	> 100 µM (inactive)	–	> 100 µM (inactive)	> 100 µM (inactive)	> 100 µM (inactive)	> 100 µM (inactive)	> 100 µM (inactive)	> 100 µM (inactive)	> 100 µM (inactive)	> 100 µM (inactive)	> 100 µM (inactive)	> 100 µM (inactive)	> 100 µM (inactive)	> 100 µM (inactive)	55.6 µM (inactive)
CC1=C2C3=C(C)C(=O)C(C)(C)CC[C@@]3(C)[C@]2(C)CCC(C)(C)C1=O	> 100 µM (inactive)	> 100 µM (inactive)	> 100 µM (inactive)	> 100 µM (inactive)	–	> 100 µM (inactive)	–	> 100 µM (inactive)	> 100 µM (inactive)	–	> 100 µM (inactive)	> 100 µM (inactive)	> 100 µM (inactive)	> 100 µM (inactive)	> 100 µM (inactive)	> 100 µM (inactive)	> 100 µM (inactive)	> 100 µM (inactive)	> 100 µM (inactive)	> 100 µM (inactive)
Cn1c(=O)sc2cc(C(=S)N3CCCCC3)ccc21	> 100 µM (inactive)	81.5 µM (inactive)	> 100 µM (inactive)	> 100 µM (inactive)	> 100 µM (inactive)	> 100 µM (inactive)	–	> 100 µM (inactive)	> 100 µM (inactive)	> 100 µM (inactive)	> 100 µM (inactive)	89.7 µM (inactive)	> 100 µM (inactive)	–	57.9 µM (inactive)	47.9 µM (inactive)	66.4 µM (inactive)	19.9 µM (inactive)	> 100 µM (inactive)	59.7 µM (inactive)
